Results from the supplement of paper PMC10307832.

How the values were obtained:
Assay in all cases: relative viability (nuclei count vs DMSO), 5 days (fraction); higher = more cells survive
[1] = compound: Cc1nc(NC(=O)N2CCC[C@H]2C(N)=O)sc1-c1ccnc(C(C)(C)C(F)(F)F)c1 [Alpelisib] + C[C@@H](Oc1cc(-c2cnn(C3CCNCC3)c2)cnc1N)c1c(Cl)ccc(F)c1Cl [Crizotinib] (partner 1 µM)
Procedure, shortened: (§1)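 Relative viability was taken as the ratio of nuclei in treated wells to nuclei in vehicle wells. Lung cancer cell lines in 1536-well plates received compounds by pin tool one day after seeding, either one drug alone or a fixed anchor-drug dose plus five library-drug doses (not always all listed) in √10 steps. Nuclei were counted on 4× images after 5 days of treatment, and values are medians of duplicate plates.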

[2] = compound: CCCS(=O)(=O)Nc1ccc(F)c(C(=O)c2c[nH]c3ncc(-c4ccc(Cl)cc4)cc23)c1F [Vemurafenib] + COc1cccc2cc(-c3nc([C@H]4CC[C@H](C(=O)O)CC4)n4ncnc(N)c34)[nH]c12 [OSI-027] (partner 0.5 µM)
Procedure, shortened: as §1

[3] = compound: Cc1nc(NC(=O)N2CCC[C@H]2C(N)=O)sc1-c1ccnc(C(C)(C)C(F)(F)F)c1 [Alpelisib] + C[C@]1(O)C[C@@H](c2nc(-c3ccc4ccc(-c5ccccc5)nc4c3)c3c(N)nccn32)C1 [Linsitinib] (partner 1 µM)
Procedure, shortened: as §1

[4] = compound: CCCS(=O)(=O)Nc1ccc(F)c(C(=O)c2c[nH]c3ncc(-c4ccc(Cl)cc4)cc23)c1F [Vemurafenib] + C[C@@H](Oc1cc(-c2cnn(C3CCNCC3)c2)cnc1N)c1c(Cl)ccc(F)c1Cl [Crizotinib] (partner 1 µM)
Procedure, shortened: as §1

| Cell Line | relative viability ([1]; first compound 0.04 µM) | relative viability ([1]; first compound 0.1265 µM) | relative viability ([1]; first compound 0.4 µM) | relative viability ([1]; first compound 1.265 µM) | relative viability ([1]; first compound 4 µM) | relative viability ([2]; first compound 0.03162 µM) | relative viability ([2]; first compound 0.1 µM) | relative viability ([2]; first compound 0.3162 µM) | relative viability ([2]; first compound 1 µM) | relative viability ([3]; first compound 0.04 µM) | relative viability ([3]; first compound 0.1265 µM) | relative viability ([3]; first compound 0.4 µM) | relative viability ([3]; first compound 1.265 µM) | relative viability ([3]; first compound 4 µM) | relative viability ([4]; first compound 0.03162 µM) | relative viability ([4]; first compound 0.1 µM) | relative viability ([4]; first compound 1 µM) | relative viability ([4]; first compound 0.3162 µM) |
| --- | --- | --- | --- | --- | --- | --- | --- | --- | --- | --- | --- | --- | --- | --- | --- | --- | --- | --- |
| HCC-366 | 0.488 | 0.459 | 0.585 | 0.215 | 0.0795 | 0.886 | 0.843 | 0.674 | 0.418 | 0.716 | 0.519 | 0.375 | 0.327 | 0.152 | 0.465 | 0.468 | 0.412 |  |
| HCC-827 | 0.927 | 0.884 | 0.949 | 0.91 | 0.88 | 0.754 |  | 0.766 | 0.704 | 0.942 | 0.979 | 1.04 | 0.925 | 0.924 | 0.825 |  | 0.863 | 0.924 |
| HOP-62 | 0.97 | 0.714 | 0.884 | 0.733 | 0.72 | 0.702 | 0.938 | 0.678 | 0.751 | 0.801 | 0.959 | 1.16 | 0.976 | 0.922 | 0.905 | 0.987 | 0.862 | 0.94 |
| IA-LM | 0.829 | 0.643 | 1.23 | 0.718 | 0.818 |  |  |  |  | 0.565 | 0.424 | 0.829 | 0.616 | 0.493 | 0.694 | 0.916 | 0.422 | 1.1 |
| LC-2-ad | 0.501 | 0.316 | 0.532 | 0.351 | 0.386 | 0.753 | 0.629 |  | 0.747 | 0.766 | 0.798 | 0.839 | 0.724 | 0.66 | 0.315 | 0.461 | 0.392 | 0.377 |
| LCLC-97TM1 | 0.343 | 0.295 | 0.427 | 0.208 | 0.157 | 0.49 | 0.612 | 0.713 | 0.43 | 0.167 | 0.167 | 0.192 | 0.157 | 0.16 | 0.287 | 0.246 | 0.278 | 0.301 |
| LCLC-103H | 0.928 | 0.976 | 1.05 | 0.899 | 0.787 | 0.41 | 0.474 | 0.39 | 0.443 | 1.07 | 1.19 | 1.25 | 0.892 | 0.76 | 1.06 | 1.06 | 1.09 | 1.01 |
| LK-2 | 0.284 | 0.188 | 0.215 | 0.233 | 0.252 | 0.194 | 0.21 | 0.228 | 0.158 | 0.385 | 0.574 | 0.549 | 0.46 | 0.687 | 0.193 | 0.202 | 0.245 | 0.208 |
| LOU-NH91 | 0.743 | 0.702 | 0.758 | 0.627 | 0.59 | 0.72 |  |  | 0.726 | 0.989 | 0.828 | 0.782 | 0.735 | 0.653 | 0.691 | 0.515 | 0.752 |  |
| LU99A | 0.544 | 0.471 | 0.509 | 0.385 | 0.313 | 0.325 | 0.28 | 0.244 | 0.287 | 0.501 | 0.477 | 0.548 | 0.427 | 0.311 | 0.531 | 0.489 | 0.526 | 0.516 |
| LXF-289 | 0.798 | 0.792 | 0.875 | 0.84 | 0.778 | 0.758 | 0.668 | 0.622 | 0.772 | 0.935 | 0.952 | 1.05 | 0.952 | 0.996 | 0.783 | 0.796 | 0.87 | 0.838 |
| NCI-H23 | 0.565 | 0.497 | 0.425 | 0.428 | 0.432 | 0.566 | 0.543 | 0.547 | 0.349 | 0.527 | 0.576 | 0.672 | 0.524 | 0.513 | 0.468 | 0.541 | 0.465 | 0.654 |
| NCI-H322M | 0.797 | 0.955 | 0.892 | 0.708 | 0.693 | 0.461 |  |  | 0.475 | 0.914 | 0.953 | 0.868 | 0.836 | 0.75 | 0.934 |  | 0.716 | 1.23 |
| NCI-H522 |  |  |  |  |  | 0.778 | 0.635 | 0.638 | 0.697 |  |  |  |  |  |  |  |  |  |
| NCI-H1299 | 0.935 | 0.943 | 1 | 0.996 | 0.936 |  |  |  |  | 0.975 | 0.984 | 1.14 | 0.866 | 0.843 | 0.951 | 0.929 | 0.94 | 0.9 |
| NCI-H1395 |  |  |  |  |  | 0.606 | 0.651 |  | 0.659 | 1.12 | 1.17 | 1.42 | 0.82 | 1.18 |  |  |  |  |
| NCI-H1623 |  |  |  |  |  | 0.405 |  | 0.521 | 0.419 |  |  |  |  |  |  |  |  |  |
| NCI-H1648 |  |  |  |  |  | 0.261 |  | 0.335 | 0.259 |  |  |  |  |  |  |  |  |  |
| NCI-H1650 | 1.01 | 0.941 | 1.02 | 0.847 | 0.956 |  | 0.448 |  | 0.537 |  |  |  |  |  | 0.922 |  | 1.01 | 1.08 |
| NCI-H1703 | 0.465 | 0.576 | 0.539 | 0.277 | 0.35 |  |  |  |  | 0.899 | 0.631 | 0.661 | 0.438 | 0.354 | 0.605 | 0.449 | 0.593 | 0.453 |
| NCI-H1793 |  |  |  |  |  | 0.274 |  | 0.316 | 0.3 | 0.596 | 1.19 | 0.997 | 0.692 | 0.525 |  |  |  |  |
| NCI-H2170 | 1.08 | 1.17 | 1.23 | 0.729 | 0.71 | 0.67 | 0.194 | 0.686 | 0.7 |  |  |  |  |  | 1.09 | 0.752 | 1.14 | 1.15 |
| NCI-H2342 |  |  |  |  |  | 0.621 | 0.561 | 0.577 | 0.643 |  |  |  |  |  |  |  |  |  |
| SW 900 |  |  |  |  |  | 0.527 | 0.545 | 0.535 | 0.433 |  |  |  |  |  |  |  |  |  |
